{
  "source": "patent US7335688B2",
  "about": "“Bicyclic cannabinoid agonists for the cannabinoid receptor” (University of Connecticut, priority 1999, dated 2008)",
  "target": "T1, CB2 receptor (Mus musculus, UniProt P47936)",
  "T1 construct": "membranes were prepared from frozen mouse spleen; from tissue; host or cells: mouse spleen membranes",
  "T1 sequence (P47936 whole entry)": "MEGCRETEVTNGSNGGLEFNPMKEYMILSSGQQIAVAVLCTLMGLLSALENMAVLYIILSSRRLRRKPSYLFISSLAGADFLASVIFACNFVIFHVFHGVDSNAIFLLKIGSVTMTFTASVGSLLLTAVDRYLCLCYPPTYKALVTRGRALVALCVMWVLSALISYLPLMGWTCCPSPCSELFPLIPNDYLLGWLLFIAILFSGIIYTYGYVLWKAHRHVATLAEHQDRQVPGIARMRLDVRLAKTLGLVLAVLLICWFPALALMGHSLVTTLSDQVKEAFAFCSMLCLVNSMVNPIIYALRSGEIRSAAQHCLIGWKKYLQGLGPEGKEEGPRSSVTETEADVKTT",
  "assay": "CB2 receptor binding assay ([3H] CP-55,940 displacement, mouse spleen membranes)",
  "settings": "CB2 (mouse spleen) versus CB1 (rat forebrain membranes) binding affinity",
  "method": "As used herein, “binding affinity” (Ki) is represented by the IC50 value which is the concentration of an analog required to occupy the 50% of the total number (Bmax) of the receptors. The lower the IC50 value the higher the binding affinity. […] The AM1703 material was tested for CB2 receptor binding affinity and for CB1 receptor affinity (to determine selectivity for the CB2 receptor).\nMembranes, previously frozen at −80° C., were thawed on ice. To the stirred suspension was added three volumes of TME (25 mM Tris-HCI buffer, 5 mM MgCl2 and 1 mM EDTA) at a pH 7.4. The suspension was incubated at 4° C. for 30 min. At the end of the incubation, the membranes were pelleted and washed three times with TME.\nThe treated membranes were subsequently used in the binding assay described below. Approximately 30 μg of membranes were incubated in silanized 96-well microtiter plate with TME containing 0.1% essentially fatty acid-free bovine serum albumin (BSA), 0.8 nM [^3H] […] Radioactivity was detected using MicroScint 20 scintillation cocktail added directly to the dried filterplates, and the filterplates were counted using a Packard Instruments Top-Count. Nonspecific binding was assessed using 100 nM CP-55,940. […] CP-55,940, determined using buffer and 100 nM CP-55,940. The normalized data was analyzed using a 4-parameter nonlinear logistic equation to yield IC50 values. […]",
  "data": [
    {"compound": "C#CCCCCC(C)(C)c1cc(O)c([C@@H]2CC(=O)[C@@H]3C[C@H]2C3(C)C)c(O)c1", "note": "[AM1703]", "values": [
      {"measurement": "CB2 selectivity over CB1", "result": "~500", "unit": "fold"}
    ]}
  ]
}
